Where a SMILES comes first, the peptide text is derived from it. Bridges are numbered along the chain shown (N, C = ends). The star is where a group is joined. DOTA = O=C(O)CN1CCN(CC(=O)O)CCN(CC(=O)*)CCN(CC(=O)O)CC1
How the values were obtained:
Format in all cases: ADME, organism-based, Neoplasm
[1] = Drug level in tumor of human MDA-MB-435 cell-xenograft athymic nude mouse model at 10 uM, iv after 4 hrs by optical imaging analysis; conditions: in vivo
[2] = Drug level in tumor of human MDA-MB-435 cell-xenograft athymic nude mouse model at 10 uM, iv by PET analysis; conditions: athymic nude mouse (human MDA-MB-435 xenograft), in vivo
[3] = Drug level in tumor of human MDA-MB-435 cell-xenograft athymic nude mouse model at 10 uM, iv after 10 mins by optical imaging analysis; conditions: in vivo

Drug uptake [1]	Drug uptake [2]	Drug uptake [3]	Structure (SMILES)
Active	Active	–	N=C(N)NCCC[C@@H]1NC(=O)[C@@H](NC(=O)[C@H](CS)NC(=O)CN2CCN(CC(=O)O)CCN(CC(=O)O)CCN(CC(=O)O)CC2)CSSC[C@@H](C(N)=O)NC(=O)[C@H](CC(=O)O)NC(=O)[C@@H]2CCCN2C(=O)CNC(=O)[C@H](CCCCN)NC(=O)[C@H](CC(=O)O)NC(=O)CNC1=O ({DOTA}-CCRGDKGPDC-NH2; disulfide 2-10)
Active	Active	Active	CC1(C)C(/C=C/C2=C(Oc3ccc(S(=O)(=O)[O-])cc3)C(=C/C=C3/N(CCCCS(=O)(=O)[O-])c4ccc(S(=O)(=O)[O-])cc4C3(C)C)/CCC2)=[N+](CCCCCC(=O)NCCN2C(=O)CC(SC[C@@H](NC(=O)CN3CCN(CC(=O)O)CCN(CC(=O)O)CCN(CC(=O)O)CC3)C(=O)N[C@H]3CSSC[C@@H](C(N)=O)NC(=O)[C@H](CC(=O)O)NC(=O)[C@@H]4CCCN4C(=O)CNC(=O)[C@H](CCCCN)NC(=O)[C@H](CC(=O)O)NC(=O)CNC(=O)[C@H](CCCNC(=N)N)NC3=O)C2=O)c2ccc(S(=O)(=O)[O-])cc21.[Na+].[Na+].[Na+] (stereo not given in full)
Active	Active	–	CC(=O)N[C@@H](CS)C(=O)N[C@H]1CSSC[C@@H](C(N)=O)NC(=O)[C@H](CC(=O)O)NC(=O)[C@@H]2CCCN2C(=O)CNC(=O)[C@H](CCCCN)NC(=O)[C@H](CC(=O)O)NC(=O)CNC(=O)[C@H](CCCNC(=N)N)NC1=O (Ac-CCRGDKGPDC-NH2; disulfide 2-10)
Active	Active	Active	CC(=O)N[C@H](CSC1CC(=O)N(CCNC(=O)CCCCC[N+]2=C(/C=C/C3=C(Oc4ccc(S(=O)(=O)[O-])cc4)C(=C/C=C4/N(CCCCS(=O)(=O)[O-])c5ccc(S(=O)(=O)[O-])cc5C4(C)C)/CCC3)C(C)(C)c3cc(S(=O)(=O)[O-])ccc32)C1=O)C(=O)N[C@H]1CSSC[C@@H](C(N)=O)NC(=O)[C@H](CC(=O)O)NC(=O)[C@@H]2CCCN2C(=O)CNC(=O)[C@H](CCCCN)NC(=O)[C@H](CC(=O)O)NC(=O)CNC(=O)[C@H](CCCNC(=N)N)NC1=O.[Na+].[Na+].[Na+] (stereo not given in full)

Reference: ChEMBL document CHEMBL1667828, “Synthesis and evaluation of new iRGD peptide analogs for tumor optical imaging” (Bioorg Med Chem Lett, 2011)
